Results as given in US11274083B2, “Substituted thiophenyl uracils, salts thereof and the use thereof as herbicidal agents” (Syngenta Crop Protection AG, priority 2017, dated 2022).

What was measured:
Format in all cases: in vivo
[1] = system: Abutilon theophrasti; assay: Herbicidal action post-emergence, greenhouse pot test
Outline: (§1)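 Weeds in sandy loam pots sprayed at one-leaf stage (2–3 weeks after sowing) with WP or EC formulations in water plus 0.5% additive, 600 L/ha, at 80 g/ha or lower. After about 3 weeks in greenhouse, efficacy scored visually versus untreated controls (100% = dead, 0% = like control).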

[2] = system: Alopecurus myosuroides; assay: as above; conditions: scored visually after about 3 weeks vs untreated controls
Outline: as §1

[3] = system: Amaranthus retroflexus; assay: as above
Outline: as §1

[4] = system: Avena fatua; assay: as above; conditions: application rate 80 g/ha
Outline: as §1

[5] = system: Echinochloa crus-galli; assay: as above; conditions: application rate 80 g/ha
Outline: as §1

[6] = system: Hordeum murinum; assay: as above
Outline: as §1

[7] = system: Lolium rigidum; assay: as above; conditions: application rate 80 g/ha
Outline: as §1

[8] = system: Matricaria inodora; assay: as above; conditions: application rate 80 g/ha
Outline: as §1

[9] = system: Pharbitis purpurea; assay: as above
Outline: as §1

[10] = system: Polygonum convolvulus; assay: as above
Outline: as §1

[11] = system: Setaria viridis; assay: as above
Outline: as §1

[12] = system: Stellaria media; assay: as above
Outline: as §1

[13] = system: Veronica persica; assay: as above
Outline: as §1

[14] = system: Viola tricolor; assay: as above
Outline: as §1

[15] = system: Abutilon theophrasti; assay: Herbicidal action pre-emergence, greenhouse pot test
Outline: (§2)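 Seeds sown in pots and covered with soil; WP or EC formulations sprayed onto the soil surface as aqueous suspension/emulsion with 0.5% additive at 600 L/ha water, at 320 g/ha or lower. Plants kept in greenhouse; efficacy scored visually after about 3 weeks as % versus untreated controls (100% = dead).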

[16] = system: Alopecurus myosuroides; assay: as above; conditions: application rate 320 g/ha
Outline: as §2

[17] = system: Amaranthus retroflexus; assay: as above
Outline: as §2

[18] = system: Avena fatua; assay: as above; conditions: application rate 320 g/ha
Outline: as §2

[19] = system: Echinochloa crus-galli; assay: as above; conditions: application rate 320 g/ha
Outline: as §2

[20] = system: Hordeum murinum; assay: as above; conditions: application rate 320 g/ha
Outline: as §2

[21] = system: Lolium rigidum; assay: as above; conditions: application rate 320 g/ha
Outline: as §2

[22] = system: Pharbitis purpurea; assay: as above
Outline: as §2

[23] = system: Polygonum convolvulus; assay: as above
Outline: as §2

[24] = system: Setaria viridis; assay: as above
Outline: as §2

[25] = system: Stellaria media; assay: as above
Outline: as §2

[26] = system: Veronica persica; assay: as above
Outline: as §2

[27] = system: Viola tricolor; assay: as above
Outline: as §2

[28] = system: Matricaria inodora; assay: as above
[29] = system: Oryza sativa; assay: Crop compatibility post-emergence, greenhouse pot test
Outline: (§3)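 Pot-grown plants in sandy loam, greenhouse, sprayed post-emergence at the one-leaf stage (2–3 weeks after sowing) with WP or EC formulations as aqueous spray plus 0.5% additive at 600 L/ha. Damage scored visually after about 3 weeks versus untreated controls, in % (0% = like control, 100% = dead).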

[30] = system: Triticum aestivum; assay: as above
Outline: as §3

[31] = system: Digitaria sanguinalis; assay: Herbicidal action post-emergence, greenhouse pot test; conditions: application rate 80 g/ha
[32] = system: Zea mays; assay: Crop compatibility post-emergence, greenhouse pot test
Outline: as §3

[33] = system: Cyperus esculentus; assay: Herbicidal action pre-emergence, greenhouse pot test
Outline: as §2

[34] = system: Glycine max; assay: Crop compatibility post-emergence, greenhouse pot test; conditions: application rate 20 g/ha
Outline: as §3

| Structure (SMILES) | Abutilon theophrasti (Efficacy in %) ([1]; application rate 80 g/ha) [%] | Alopecurus myosuroides (Efficacy in %) ([2]; application rate 80 g/ha) [%] | Amaranthus retroflexus (Efficacy in %) ([3]; application rate 80 g/ha) [%] | Avena fatua (Efficacy in %) [4] [%] | Echinochloa crus-galli (Efficacy in %) [5] [%] | Lolium rigidum (Efficacy in %) [7] [%] | Matricaria inodora (Efficacy in %) [8] [%] | Pharbitis purpurea (Efficacy in %) ([9]; application rate 20 g/ha) [%] | Setaria viridis (Efficacy in %) ([11]; application rate 80 g/ha) [%] | Veronica persica (Efficacy in %) ([13]; application rate 20 g/ha) [%] | Viola tricolor (Efficacy in %) ([14]; application rate 80 g/ha) [%] | Alopecurus myosuroides (Efficacy in %) [16] [%] | Amaranthus retroflexus (Efficacy in %) ([17]; application rate 80 g/ha) [%] | Avena fatua (Efficacy in %) [18] [%] | Echinochloa crus-galli (Efficacy in %) [19] [%] | Hordeum murinum (Efficacy in %) [20] [%] | Lolium rigidum (Efficacy in %) [21] [%] | Veronica persica (Efficacy in %) ([26]; application rate 80 g/ha) [%] | Hordeum murinum (Efficacy in %) ([6]; application rate 80 g/ha) [%] | Polygonum convolvulus (Efficacy in %) ([10]; application rate 80 g/ha) [%] | further results |
| --- | --- | --- | --- | --- | --- | --- | --- | --- | --- | --- | --- | --- | --- | --- | --- | --- | --- | --- | --- | --- | --- |
| COC(=O)CCOC(=O)C(C)Sc1cc(-n2c(=O)cc(C(F)(F)F)n(C)c2=O)c(F)cc1Cl (centres unmarked) [I.1-2] | 100 | 100 | 100 | 80 | 100 | 90 | 100 | 100 | 100 | 100 | 100 | 90 | 100 | 90 | 100 | 90 | 100 | 100 |  |  | Hordeum murinum (Efficacy in %) ([6]; application rate 20 g/ha): 100%; Polygonum convolvulus (Efficacy in %) ([10]; application rate 20 g/ha): 100%; Stellaria media (Efficacy in %) ([12]; application rate 20 g/ha): 100%; Abutilon theophrasti (Efficacy in %) ([15]; application rate 80 g/ha): 100%; Pharbitis purpurea (Efficacy in %) ([22]; application rate 80 g/ha): 100%; Polygonum convolvulus (Efficacy in %) ([23]; application rate 80 g/ha): 100%; Setaria viridis (Efficacy in %) ([24]; application rate 80 g/ha): 100%; Stellaria media (Efficacy in %) ([25]; application rate 80 g/ha): 100%; Viola tricolor (Efficacy in %) ([27]; application rate 80 g/ha): 100%; Matricaria inodora (Efficacy in %) ([28]; application rate 80 g/ha): 100% |
| CCCOC(=O)CCOC(=O)C(C)Sc1cc(-n2c(=O)cc(C(F)(F)F)n(C)c2=O)c(F)cc1Cl (centres unmarked) [I.1-8] | 100 | 90 | 100 | 80 | 100 | 90 | 100 |  | 100 |  | 100 | 80 |  |  | 100 |  | 90 |  | 90 | 100 | Pharbitis purpurea (Efficacy in %) ([9]; application rate 80 g/ha): 100%; Stellaria media (Efficacy in %) ([12]; application rate 80 g/ha): 100%; Veronica persica (Efficacy in %) ([13]; application rate 80 g/ha): 100%; Oryza sativa (Efficacy in %) ([29]; application rate 5 g/ha): 20%; Triticum aestivum (Efficacy in %) ([30]; application rate 20 g/ha): 20%; Abutilon theophrasti (Efficacy in %) ([15]; application rate 320 g/ha): 100%; Amaranthus retroflexus (Efficacy in %) ([17]; application rate 320 g/ha): 100%; Pharbitis purpurea (Efficacy in %) ([22]; application rate 320 g/ha): 100%; Polygonum convolvulus (Efficacy in %) ([23]; application rate 320 g/ha): 100%; Setaria viridis (Efficacy in %) ([24]; application rate 320 g/ha): 100%; Stellaria media (Efficacy in %) ([25]; application rate 320 g/ha): 100%; Veronica persica (Efficacy in %) ([26]; application rate 320 g/ha): 100%; Viola tricolor (Efficacy in %) ([27]; application rate 320 g/ha): 100%; Matricaria inodora (Efficacy in %) ([28]; application rate 320 g/ha): 100%; Digitaria sanguinalis (Efficacy in %) [31]: 100% |
| COC(=O)CC(CC(=O)OC)OC(=O)C(C)Sc1cc(-n2c(=O)cc(C(F)(F)F)n(C)c2=O)c(F)cc1Cl (centres unmarked) [I.1-127] | 100 | 90 |  | 80 | 100 | 100 | 100 | 100 | 100 | 100 | 100 | 90 |  | 90 | 100 | 100 | 100 |  | 90 | 100 | Amaranthus retroflexus (Efficacy in %) ([3]; application rate 20 g/ha): 100%; Stellaria media (Efficacy in %) ([12]; application rate 20 g/ha): 100%; Zea mays (Efficacy in %) ([32]; application rate 5 g/ha): 20%; Abutilon theophrasti (Efficacy in %) ([15]; application rate 320 g/ha): 100%; Amaranthus retroflexus (Efficacy in %) ([17]; application rate 20 g/ha): 100%; Pharbitis purpurea (Efficacy in %) ([22]; application rate 320 g/ha): 100%; Polygonum convolvulus (Efficacy in %) ([23]; application rate 320 g/ha): 100%; Setaria viridis (Efficacy in %) ([24]; application rate 320 g/ha): 100%; Stellaria media (Efficacy in %) ([25]; application rate 320 g/ha): 100%; Veronica persica (Efficacy in %) ([26]; application rate 320 g/ha): 100%; Viola tricolor (Efficacy in %) ([27]; application rate 320 g/ha): 100%; Matricaria inodora (Efficacy in %) ([28]; application rate 320 g/ha): 100% |
| CON(C)C(=O)COC(=O)C(C)Sc1cc(-n2c(=O)cc(C(F)(F)F)n(C)c2=O)c(F)cc1Cl (centres unmarked) [I.1-242] | 100 |  | 100 | 80 | 100 | 100 | 100 |  | 100 |  | 100 | 90 | 100 | 80 | 100 | 90 | 100 | 100 | 90 | 100 | Alopecurus myosuroides (Efficacy in %) ([2]; application rate 20 g/ha): 90%; Pharbitis purpurea (Efficacy in %) ([9]; application rate 80 g/ha): 100%; Stellaria media (Efficacy in %) ([12]; application rate 80 g/ha): 100%; Veronica persica (Efficacy in %) ([13]; application rate 80 g/ha): 100%; Oryza sativa (Efficacy in %) ([29]; application rate 5 g/ha): 20%; Triticum aestivum (Efficacy in %) ([30]; application rate 5 g/ha): 20%; Zea mays (Efficacy in %) ([32]; application rate 80 g/ha): 20%; Abutilon theophrasti (Efficacy in %) ([15]; application rate 80 g/ha): 100%; Cyperus esculentus (Efficacy in %) ([33]; application rate 80 g/ha): 80%; Pharbitis purpurea (Efficacy in %) ([22]; application rate 80 g/ha): 100%; Polygonum convolvulus (Efficacy in %) ([23]; application rate 80 g/ha): 100%; Setaria viridis (Efficacy in %) ([24]; application rate 80 g/ha): 100%; Stellaria media (Efficacy in %) ([25]; application rate 80 g/ha): 100%; Viola tricolor (Efficacy in %) ([27]; application rate 80 g/ha): 100%; Matricaria inodora (Efficacy in %) ([28]; application rate 80 g/ha): 100% |
| CCC(Sc1cc(-n2c(=O)cc(C(F)(F)F)n(C)c2=O)c(F)cc1Cl)C(=O)OCCC(=O)OC (centres unmarked) [I.2-2] | 100 | 100 | 100 | 80 | 100 | 80 | 100 | 100 | 100 | 100 | 100 | 100 | 100 |  | 100 | 100 | 100 | 100 | 80 | 100 | Stellaria media (Efficacy in %) ([12]; application rate 80 g/ha): 100%; Oryza sativa (Efficacy in %) ([29]; application rate 5 g/ha): 20%; Triticum aestivum (Efficacy in %) ([30]; application rate 5 g/ha): 20%; Abutilon theophrasti (Efficacy in %) ([15]; application rate 320 g/ha): 100%; Cyperus esculentus (Efficacy in %) ([33]; application rate 320 g/ha): 90%; Pharbitis purpurea (Efficacy in %) ([22]; application rate 320 g/ha): 100%; Polygonum convolvulus (Efficacy in %) ([23]; application rate 320 g/ha): 100%; Setaria viridis (Efficacy in %) ([24]; application rate 320 g/ha): 100%; Stellaria media (Efficacy in %) ([25]; application rate 320 g/ha): 100%; Viola tricolor (Efficacy in %) ([27]; application rate 320 g/ha): 100%; Matricaria inodora (Efficacy in %) ([28]; application rate 320 g/ha): 100% |
| CCOC(=O)CCOC(=O)C(CC(C)C)Sc1cc(-n2c(=O)c(C)c(C(F)(F)F)n(C)c2=O)c(F)cc1Cl (centres unmarked) [I.14-3] |  |  |  |  |  |  |  | 100 |  | 100 |  |  |  |  |  |  |  |  |  |  | Abutilon theophrasti (Efficacy in %) ([1]; application rate 20 g/ha): 100%; Amaranthus retroflexus (Efficacy in %) ([3]; application rate 20 g/ha): 100%; Polygonum convolvulus (Efficacy in %) ([10]; application rate 20 g/ha): 100%; Setaria viridis (Efficacy in %) ([11]; application rate 20 g/ha): 90%; Viola tricolor (Efficacy in %) ([14]; application rate 20 g/ha): 100%; Glycine max (Efficacy in %) [34]: 20%; Oryza sativa (Efficacy in %) ([29]; application rate 20 g/ha): 0%; Triticum aestivum (Efficacy in %) ([30]; application rate 20 g/ha): 20% |
